Experimental data as given in patent US6503532B1, “Pharmaceutical composition containing tetrahydrocannabinol and a transdermal/transcutaneous delivery method thereof” (Murty Pharmaceuticals, Inc., priority 2001, dated 2003).

Key:
[1] = Solubility of THC in ethanol:water with or without permeation enhancer (HPLC); settings: ethanol:water 70:30 v/v, aqueous with cosolvent or surfactant or cyclodextrin, thermodynamic from solid
[2] = 750 courses of oral therapy; cited from earlier work
[3] = in vivo; cited from earlier work

For CCCCCc1cc(O)c2c(c1)OC(C)(C)[C@@H]1CCC(C)=C[C@@H]21 [THC, tetrahydrocannabinol], the solubility at 24 h [1] is listed as 20.2 mg/mL, the “poor or only partial response to THC, share of courses” value [2] is listed as “approximately 65%” and the “Plasma levels for therapeutic effects” value [3] is listed as ~10 nanograms/ml.
